# Source: PMC11358882, “Neuroprotective Effects of Phenolic Constituents from Drynariae Rhizoma” (Pharmaceuticals, 2024)
# Several values for one entry are separate records, joined by “and”; a condition that tells them apart may be missing. Equal values may be shown once. Read-outs that look alike come from different tables or passages of the source.
# Tests used:
# AChE from electric eel = target: T1, AChE from electric eel (Electrophorus electricus, UniProt O42275); experiment: biochemical; type: biochemical
# T1 construct: purchased Sigma-Aldrich Co., St. Louis, USA
# T1 sequence (O42275 24-633): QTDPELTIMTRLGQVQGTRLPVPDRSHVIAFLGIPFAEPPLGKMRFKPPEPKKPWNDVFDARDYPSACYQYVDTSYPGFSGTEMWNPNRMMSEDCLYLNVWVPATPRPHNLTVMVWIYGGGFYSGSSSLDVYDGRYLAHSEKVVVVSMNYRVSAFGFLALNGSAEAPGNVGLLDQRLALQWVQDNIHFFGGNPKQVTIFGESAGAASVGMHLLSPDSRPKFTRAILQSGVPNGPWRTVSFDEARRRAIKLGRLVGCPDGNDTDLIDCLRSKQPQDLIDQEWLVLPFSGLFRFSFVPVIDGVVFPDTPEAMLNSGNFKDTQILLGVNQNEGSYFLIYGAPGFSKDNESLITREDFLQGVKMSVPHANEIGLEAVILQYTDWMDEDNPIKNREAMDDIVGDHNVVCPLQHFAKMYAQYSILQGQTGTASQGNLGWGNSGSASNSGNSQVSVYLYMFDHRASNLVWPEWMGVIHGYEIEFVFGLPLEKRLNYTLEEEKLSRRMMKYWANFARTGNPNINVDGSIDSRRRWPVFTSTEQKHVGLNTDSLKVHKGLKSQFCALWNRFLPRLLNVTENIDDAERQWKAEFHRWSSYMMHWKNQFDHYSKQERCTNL
# Method: (§1) The AChE- and BChE-inhibitory, MTT, and Th T assays were analyzed using a UV–visible (VIS) spectrophotometer (Biotek, EPOCH2, Winooski, VT, USA), ensuring accurate measurements. For BACE1- and MAO-B-inhibitory assays, a multimode microplate reader (SpectraMax M3, Molecular Devices, San Jose, CA, USA) was employed, providing precise readings. Analytical-grade DMSO from DEAJUNG Chemical, Korea, served as a solvent in the bioassays. Reagents and solvents, including AChE from electric eel, acetylthiocholine iodide (ATCh), BChE from equine serum, S-butyrylthiocholine iodide (BTCh), 5,5′-dithiobis [2-nitrobenzoic acid] […] Additionally, the BACE1-inhibitory assay utilized the BACE1 (β-secretase) FRET assay kit from PanVera® Corporation, Madison, USA, while the MAO-B-inhibitory assay employed the MAO-B Inhibitor Screening Kit (Fluorometric) ab284511 from Abcam plc Co., Cambridge, UK.
# (§2) The inhibitory activities against cholinesterases (AChE and BChE) were evaluated using a spectrophotometric method previously developed by Ellman et al.. Specifically, ATCh and BTCh were used as substrates to measure the inhibitory effects on AChE and BChE, respectively. The assay mixture consisted of 140 μL of 0.1 M sodium phosphate buffer at pH 7.8, 20 μL of a 0.38 U/mL solution of either AChE or BChE, and 20 μL of the test sample solution. This mixture was thoroughly mixed and then incubated at room temperature for 15 min. […] Reactions were initiated by adding 10 μL of 0.5 mM DTNB and 10 μL of either 0.6 mM ATCh or BTCh. ChE-inhibitory activity was monitored by measuring the formation of the yellow 5-thio-2-nitrobenzoate anion at 412 nm over 15 min (Epoch, BioTek, Winooski, VT, USA), resulting from the reaction of DTNB and thiocholine released from ATCh or BTCh. All reactions were conducted in 96-well microplates and performed in triplicate. The percentage of inhibition (%) was determined using the following formula: inhibition (%)={(Ac−As)/Ac}×100 , where Ac represents the enzyme activity in the absence of the test sample, and As represents the enzyme activity in the presence of the test sample. The ChE-inhibitory activities of each sample were quantified in terms of IC50, which was calculated from the log–dose inhibition curve.
# BACE1 = target: T2, BACE1 (Homo sapiens, UniProt P56817); experiment: BACE1 (β-secretase) FRET inhibitory assay; type: biochemical
# T2 construct: purchased PanVera Corporation, Madison, WI, USA P2985
# T2 sequence (P56817 46-501): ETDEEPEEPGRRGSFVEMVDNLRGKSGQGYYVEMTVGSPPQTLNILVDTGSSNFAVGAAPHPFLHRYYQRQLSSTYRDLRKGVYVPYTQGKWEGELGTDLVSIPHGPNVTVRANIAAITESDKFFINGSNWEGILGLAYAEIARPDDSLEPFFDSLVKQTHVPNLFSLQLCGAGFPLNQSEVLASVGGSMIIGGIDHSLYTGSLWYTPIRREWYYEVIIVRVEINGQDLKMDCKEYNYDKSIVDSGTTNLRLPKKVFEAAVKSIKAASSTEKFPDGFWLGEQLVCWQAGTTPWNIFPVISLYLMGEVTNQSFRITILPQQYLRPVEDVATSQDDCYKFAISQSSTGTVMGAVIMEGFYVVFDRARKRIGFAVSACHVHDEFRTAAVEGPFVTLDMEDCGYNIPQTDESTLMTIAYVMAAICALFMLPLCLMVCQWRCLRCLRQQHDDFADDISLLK
# Method: The BACE1 inhibition assay was conducted using the BACE1 (β-secretase) FRET Assay Kit, Red Protocol, part number P2985 (PanVera® Corporation, Madison, WI, USA), following the manufacturer’s recommended protocol with minor modifications. The assay mixture consisted of 10 μL of BACE1 (1.0 U/mL), 10 μL of substrate (750 nM Rh-[…]-Quencher in 50 mM ammonium bicarbonate), the assay buffer (50 mM sodium acetate, pH 4.5), and 10 μL of the test samples. […] The reaction mixture was incubated for 60 min at room temperature in darkness. Before measurement, a stop solution (2.5 M sodium acetate) was added to halt the reaction. BACE1 enzyme activity was assessed by monitoring the proteolysis of two fluorophores (Rh-[…]-Quencher), forming the fluorescent donor (Rh-EVNL) with increased fluorescence wavelengths at 530–545 nm (excitation) and 570–590 nm (emission), respectively. All reactions were recorded in black 96-well microplates and performed in triplicate. The percentage of inhibition (%) was calculated using the following formula: inhibition (%)=[1−(S60−S0)/(C60−C0)]×100 , where C60 represents the fluorescence of the control after incubation, C0 represents the initial fluorescence of the control, S60 represents the fluorescence of the tested sample after incubation, and S0 represents the initial fluorescence of the tested sample. The BACE1-inhibitory activities of each sample were quantified in terms of IC50, which was determined from the log–dose inhibition curve.
# sAPPβ = experiment: Western blot of sAPPβ levels in APP-CHO cells; type: cell-based, Chinese hamster; details: 24 h; for reduction of sAPPβ levels compared to DMSO-treated controls: 1.0 μM
# Method: (§3) APP-CHO cells were seeded in six-well plates at a density of 6 × 10^5 cells/1000 μL of medium per well and incubated at 37 °C overnight for cell attachment. Then, the medium was replaced with FBS-free RPMI 1640 for 1 h, followed by treatment with test samples at 37 °C. After 24 h, the cells were washed with PBS and lysed in Laemmli sample buffer. The collected cell lysates were boiled at 100 °C for 10 min. For Western blot analysis, 20 μg of proteins were separated by 7.5% SDS-PAGE and transferred to a PVDF membrane using Trans-Blot® Turbo TM (Bio-Rad, Hercules, CA, USA). The membrane was blocked with 5% skim milk in PBS for 1 h and incubated with primary antibodies overnight at 4 °C. The primary antibodies used were sAPPβ antibody, BACE1 antibody, and α-tubulin antibody diluted at 1:1000, 1:1000, and 1:25,000, respectively. After washing with PBS-T (0.1% Tween 20 in PBS) three times for 10 min each, secondary antibodies, diluted to 1:2500, were incubated for 1 h. Protein detection was performed using ECL solution reagent and protein visualization (ChemiDoc^TM XRS+., Bio-Rad, Hercules, CA, USA). The signal intensity of the bands was quantified and normalized to the signal intensity of the α-tubulin band. Results were expressed as a percentage of DMSO-treated control.
# MAO-B = target: T3, MAO-B (Homo sapiens, UniProt P27338); experiment: MAO-B inhibitor screening kit (fluorometric) assay; type: biochemical; details: isolated compounds; mean ± SD, n = 3; ND = no detection using test concentration
# T3 construct: purchased Abcam plc, Cambridge, UK ab284511
# T3 sequence (P27338 1-520): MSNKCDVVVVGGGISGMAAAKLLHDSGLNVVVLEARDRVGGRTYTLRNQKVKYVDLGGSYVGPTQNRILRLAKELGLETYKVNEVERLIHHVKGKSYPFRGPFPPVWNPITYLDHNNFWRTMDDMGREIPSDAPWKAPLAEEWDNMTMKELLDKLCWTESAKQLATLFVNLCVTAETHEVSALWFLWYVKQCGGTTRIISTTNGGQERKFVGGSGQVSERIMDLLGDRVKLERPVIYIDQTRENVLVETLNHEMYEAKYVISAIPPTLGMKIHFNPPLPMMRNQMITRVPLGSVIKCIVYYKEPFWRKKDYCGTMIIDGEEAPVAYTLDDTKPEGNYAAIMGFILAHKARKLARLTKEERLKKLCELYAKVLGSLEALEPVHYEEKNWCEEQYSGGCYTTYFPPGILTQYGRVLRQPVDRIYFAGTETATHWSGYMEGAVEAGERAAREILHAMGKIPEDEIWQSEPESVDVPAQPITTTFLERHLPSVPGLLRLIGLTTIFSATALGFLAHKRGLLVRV
# Method: The MAO-B-inhibition assay was conducted using the MAO-B Inhibitor Screening Kit (Fluorometric) ab284511 (Abcam plc, Cambridge, UK), following the manufacturer’s recommended protocol with minor modifications. The enzyme solution (50 µL) and the test sample (10 µL) were adjusted as per the manual instructions. […] After mixing, samples and enzymes were incubated at 25 °C for 10 min. Subsequently, 40 μL of MAO-B substrate (comprising MAO-B assay buffer, MAO substrate, developer, and OxiRed probe) was added, followed by further incubation at 25 °C for 5 min. Fluorescence was measured using enzyme-linked immunosorbent assay within 40 min with dynamic fluorescence (Ex/Em = 535/587 nm). All reactions were recorded in black 96-well microplates and performed in triplicate. The slope for all samples, including the enzyme control (EC), was calculated by dividing the net ΔRFU (RFU2–RFU1) values by the time Δt (T2 − T1). The % relative inhibition was computed as follows: % relative inhibition=(slope of EC−slope of S)/slope of EC×100 . The MAO-B-inhibitory activities of each sample were quantified in terms of IC50, as determined from the log–dose inhibition curve.
# β-secretase = experiment: Western blot of β-secretase levels in APP-CHO cells; type: cell-based, Chinese hamster; details: 24 h; for reduction of β-secretase levels compared to DMSO-treated controls: 1.0 μM
# Method: as §3
# BChE from equine serum = target: T4, BChE from equine serum (Equus caballus, UniProt P81908); experiment: biochemical; type: biochemical
# T4 construct: BChE from equine serum; purchased Sigma-Aldrich Co., St. Louis, USA; host or cells: equine serum
# T4 sequence (P81908 whole entry): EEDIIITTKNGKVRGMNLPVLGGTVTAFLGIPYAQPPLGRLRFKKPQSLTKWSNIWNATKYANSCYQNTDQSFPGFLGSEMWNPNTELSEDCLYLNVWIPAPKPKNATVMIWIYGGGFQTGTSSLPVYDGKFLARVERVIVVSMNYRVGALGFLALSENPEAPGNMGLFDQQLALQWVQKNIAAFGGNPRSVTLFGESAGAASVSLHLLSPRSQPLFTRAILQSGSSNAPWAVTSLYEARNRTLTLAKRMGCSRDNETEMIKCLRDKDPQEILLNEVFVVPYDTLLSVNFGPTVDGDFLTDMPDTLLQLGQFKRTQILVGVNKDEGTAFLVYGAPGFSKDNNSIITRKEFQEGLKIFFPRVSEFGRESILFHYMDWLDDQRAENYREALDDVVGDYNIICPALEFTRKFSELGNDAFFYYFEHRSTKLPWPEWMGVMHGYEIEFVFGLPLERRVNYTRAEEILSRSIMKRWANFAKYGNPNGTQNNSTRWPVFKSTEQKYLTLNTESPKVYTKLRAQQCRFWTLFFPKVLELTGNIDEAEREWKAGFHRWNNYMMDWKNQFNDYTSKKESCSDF
# Method: as §1, §2
# [1] = test system: cultured cortical neurons; design: method as in PMID 26299900; details: cited from earlier work
# [2] = isolated compounds, mean ± SD, n = 3, read-out: IC50 BACE1
# [3] = isolated compounds, mean ± SD, n = 3, ND = no detection using test concentration, read-out: IC50 BChE
# [4] = isolated compounds, mean ± SD, n = 3, ND = no detection using test concentration, read-out: IC50 AChE
# [5] = isolated compounds, mean ± SD, n = 3, ND = no detection using test concentration
SMILES,IC50 (AChE from electric eel) [µM],IC50 (BACE1; [2]) [µM],IC50 (MAO-B) [µM],IC50 (BChE from equine serum; [3]) [µM],IC50 (AChE from electric eel; [4]) [µM],IC50 (BChE from equine serum) [µM],also measured
"COc1ccc2cc3[n+](cc2c1OC)CCc1cc2c(cc1-3)OCO2 [Berberine, berberine, reference compound]",0.119,,,,,,
"O=C(O)/C=C/c1ccc(O[C@@H]2O[C@H](CO)[C@@H](O)[C@H](O)[C@H]2O)c(O)c1 [Compound 2, caffeic acid 4-O-β-D-glucopyranoside]",,45 ± 0.48,401.3 ± 2.66,488 ± 10.1,14.77 ± 0.07,,reduction of sAPPβ expression levels (sAPPβ; 0.5 μM): 50%; reduction of β-secretase expression levels (β-secretase; 0.5 μM): 40%; axonal regrowth effect on Aβ25–35-induced atrophy ([1]; 10 μM): significant axonal regrowth effects
"C[C@@H]1O[C@@H](O[C@H]2[C@H](Oc3cc(O)c4c(c3)O[C@H](c3ccc(O)cc3)CC4=O)O[C@H](CO)[C@@H](O)[C@@H]2O)[C@H](O)[C@H](O)[C@H]1O [Compound 9, naringin]",124 ± 35.3,64.95 ± 0.17,51.26 ± 0.14,,,252 ± 12.3,reduction of sAPPβ levels compared to DMSO-treated controls (sAPPβ): 30%; reduction of β-secretase levels compared to DMSO-treated controls (β-secretase): 40% and 30%
"COc1ccc([C@@H]2CC(=O)c3c(O)cc(O[C@@H]4O[C@H](CO[C@@H]5O[C@@H](C)[C@H](O)[C@@H](O)[C@H]5O)[C@@H](O)[C@H](O)[C@H]4O)cc3O2)cc1O [Compound 10, hesperidin]",57.7 ± 5.96,55.72 ± 0.17,98.77 ± 0.14,,,331.77 ± 0.14,reduction of sAPPβ levels compared to DMSO-treated controls (sAPPβ): 30%; reduction of β-secretase levels compared to DMSO-treated controls (β-secretase): 30%
"O=C(O)/C=C/c1ccc(O[C@@H]2O[C@H](CO)[C@@H](O)[C@H](O)[C@H]2O)cc1 [Compound 1, coumaric acid 4-O-β-D-glucopyranoside]",,> 1000,> 1000,53.8 ± 1.15,33.4 ± 0.42,,
"C[C@@H]1O[C@@H](O[C@H]2[C@H](Oc3cc(O)c4c(c3)O[C@H](c3ccc(O)c(O)c3)CC4=O)O[C@H](CO)[C@@H](O)[C@@H]2O)[C@H](O)[C@H](O)[C@H]1O [Compound 8, neoeriocitrin]",31.65 ± 0.14,,2.64 ± 0.016,,,30.04 ± 0.23,IC50 (BACE1): 13.7 ± 0.14 µM; axonal regrowth effect on Aβ25–35-induced atrophy ([1]; 1 and 10 μM): significant axonal regrowth effects
"COc1cc(/C=C/C(=O)O)ccc1O[C@@H]1O[C@H](CO)[C@@H](O)[C@H](O)[C@H]1O [Compound 3, lavandoside]",,235 ± 6.86,155 ± 7.18,,,,IC50 BChE (BChE from equine serum; [5]): did not demonstrate cholinesterase-inhibitory activity; IC50 AChE (AChE from electric eel; [5]): did not demonstrate cholinesterase-inhibitory activity
"COc1cc(/C=C/C(=O)O)cc(OC)c1O[C@@H]1O[C@H](CO)[C@@H](O)[C@H](O)[C@H]1O [Compound 4, trans-p-sinapoyl-β-D-glucopyranoside]",,147.4 ± 0.74,600.9 ± 3.72,30.6 ± 0.38,,,
"C[C@@H]1O[C@@H](O[C@H]2[C@H](Oc3cc(O)c4c(=O)ccoc4c3)O[C@H](CO)[C@@H](O)[C@@H]2O)[C@H](O)[C@H](O)[C@H]1O [Compound 5, 5,7-dihydroxychromone-7-O-neohesperidoside]",,> 1000,,38.8 ± 0.71,> 1000,,
